Assay results: the SangsterLogP compilation

Assay: method code SF, from DOI: 10.1039/p29920001643

Structure (SMILES) | logP
Cc1no[n+]([O-])c1Cl | 0.9
Cc1c(Cl)no[n+]1[O-] | 1.02
CNC(=O)Nc1nonc1C | 0.3
COC(=O)Nc1nonc1C | 0.42
Cc1no[n+]([O-])c1C | 0.23
Cc1no[n+]([O-])c1C(N)=O | 0.36
c1cnon1 | 0.16
CC(=O)Nc1nonc1N | -0.23
Cc1nonc1Cc1ccc([N+](=O)[O-])cc1 | 2.21
Cc1nsnc1C | 1.28
CC(=O)c1no[n+]([O-])c1C | 0.98
CC(=O)Nc1nonc1C | 0.17
CCS(=O)(=O)c1no[n+]([O-])c1C | 0.65
Cc1nonc1C | 0.71
COC(=O)c1nonc1C | 0.94
CNC(=O)c1nonc1C | 0.56
Cc1nonc1N | 0.09
O=[N+]([O-])c1nonc1-c1ccccc1 | 2.63
Cc1nonc1C(N)=O | 0.31
[O-][n+]1onc2ccccc21 | 1.43
Cc1no[n+]([O-])c1C=O | 1.29
Cc1no[n+]([O-])c1N | -0.32
CCCc1nonc1C | 1.71
CCc1nonc1C | 1.18
Nc1nonc1N | -0.49
Cc1c(C=O)no[n+]1[O-] | 1.02
Cc1nonc1[N+](=O)[O-] | 0.97
CCNc1nonc1N | 0.51
Cc1c(N)no[n+]1[O-] | -0.17

The next lines start with the values.

logP | Structure (SMILES)
1.76 | Cc1nonc1S(=O)c1ccccc1 (stereo unspecified)
2.92 | O=Cc1c(-c2ccccc2)no[n+]1[O-]
1.69 | c1ccc2nonc2c1
0.69 | COC(=O)c1c(C)no[n+]1[O-]
2.03 | Cc1c(S(=O)(=O)c2ccccc2)no[n+]1[O-]
3.65 | [O-][n+]1onc(Cc2ccccc2)c1Cc1ccccc1
1.64 | [O-][n+]1onc(CO)c1-c1ccccc1
1.98 | c1ccc2nsnc2c1
2.22 | Cc1no[n+]([O-])c1Cc1ccccc1
1.5 | Cc1c(S(=O)c2ccccc2)no[n+]1[O-] (stereo unspecified)
0.56 | COC(=O)c1no[n+]([O-])c1C
1.41 | Nc1nonc1NC(=O)c1ccccc1
1.75 | Cc1no[n+]([O-])c1S(=O)c1ccccc1 (stereo unspecified)
0.03 | Cc1c(C(N)=O)no[n+]1[O-]
1.92 | OCc1nonc1-c1ccccc1
1.42 | Nc1c(-c2ccccc2)no[n+]1[O-]

logP | Structure (SMILES)
1.81 | Nc1nonc1-c1ccccc1
1.47 | Nc1no[n+]([O-])c1-c1ccccc1
2.16 | Cc1no[n+]([O-])c1-c1ccccc1
2.17 | Cc1c(-c2ccccc2)no[n+]1[O-]
0.8 | CC(=O)c1c(C)no[n+]1[O-]
1.77 | [O-][n+]1onc(-c2ccccc2)c1CO
2.74 | Cc1no[n+]([O-])c1Sc1ccccc1
2.08 | Cc1c(Cc2ccccc2)no[n+]1[O-]
3.64 | [O-][n+]1onc(-c2ccccc2)c1-c1ccccc1
3.2 | Clc1nonc1-c1ccccc1
2.36 | Cc1nonc1S(=O)(=O)c1ccccc1
2.59 | Cc1nonc1-c1ccccc1
2.7 | [O-][n+]1onc(Cl)c1-c1ccccc1
2.92 | Cc1nonc1Sc1ccccc1
3.83 | c1ccc(-c2nonc2-c2ccccc2)cc1
2.61 | O=Cc1no[n+]([O-])c1-c1ccccc1
